Measurements: patent US10822337B2, “TGF-β inhibitorC” (Rigel Pharmaceuticals, Inc., priority 2015, dated 2020)

Columns and labels:
[1] = system: GDF8 signaling (GDF pSMAD, MPC11); assay: AlphaScreen SureFire SMAD3 (p-Ser423/425) assay, inhibition of GDF8 signaling; assay type: cell-based; conditions: Mus musculus, MPC-11, p-SMAD-3 (Ser423/425) in cell lysate after GDF8 stimulation
[2] = system: TGF-β signaling (TGF-β pSMAD, MPC-11); assay: AlphaScreen SureFire SMAD3 (p-Ser423/425) assay, inhibition of TGF-β signaling; assay type: cell-based; conditions: Mus musculus, p-SMAD-3 (Ser423/425) in cell lysate after TGF-β stimulation
Method in brief: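 Phosphorylation of endogenous SMAD-3 at Ser423/425 was quantified with an AlphaScreen SureFire assay. Cells were exposed to compound for about 10 minutes, stimulated with TGF-β, and lysed in 1× Lysis Buffer. Lysate (5 μL) was combined with Reaction/Activation buffer plus Acceptor beads for 2 hours, then Donor beads for 1½ hours, and read on a plate reader.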

Row | IC50 [1] [nM] | IC50 [2] [nM] | SMILES
1 | 296 | 738 | Fc1ccc(-c2nn3c(c2-c2ccc4ncnn4c2)CCC3)c(F)c1Cl [Compound 160, 6-(2-(3-Chloro-2,4-difluorophenyl)-5,6-dihydro-4H-pyrrolo[1,2-b]pyrazol-3-yl)-[1,2,4]triazolo[1,5-a]pyridine]
2 | 26.4 | 334 | Fc1ccc(F)c(-c2nn3c(c2-c2ccc4ncnn4c2)CCC3)c1 [Compound 198, 6-(2-(2,5-Difluorophenyl)-5,6-dihydro-4H-pyrrolo[1,2-b]pyrazol-3-yl)-[1,2,4]triazolo[1,5-a]pyridine]
3 | 395 | 2340 | Fc1ccc(-c2nn3c(c2-c2ccc4nccnc4c2)CCC3)cc1 [Compound 53, 6-(2-(4-Fluorophenyl)-5,6-dihydro-4H-pyrrolo[1,2-b]pyrazol-3-yl)quinoxaline]
4 | 48.6 | 264 | COc1cccc(-c2nn3c(c2-c2ccc4ncsc4c2)CCC3)c1 [Compound 30, 6-(2-(3-Methoxyphenyl)-5,6-dihydro-4H-pyrrolo[1,2-b]pyrazol-3-yl)benzo[d]thiazole]
5 | 373 | 2950 | Cc1cccc(-c2nn3c(c2-c2ccc4ncccc4c2)OCC3)c1 [Compound 51, 7-(Quinolin-6-yl)-6-(m-tolyl)-2,3-dihydropyrazolo[5,1-b]oxazole]
6 | 39.8 | 159 | FC(F)(F)c1cccc(-c2nn3c(c2-c2ccc4ncnn4c2)CCC3)c1 [Compound 108, 6-(2-(3-Trifluoromethylphenyl)-5,6-dihydro-4H-pyrrolo[1,2-b]pyrazol-3-yl)-[1,2,4]triazolo[1,5-a]pyridine]
7 | 24 | 87.6 | Cn1cnc2ccc(-c3c(-c4cc(F)c(F)cc4F)nn4c3CCC4)cc21 [Compound 114, 1-Methyl-6-(2-(2,4,5-trifluorophenyl)-5,6-dihydro-4H-pyrrolo[1,2-b]pyrazol-3-yl)-1H-benzo[d]imidazole]
8 | 418 | 1620 | Fc1ccc(-c2nn3c(c2-c2ccc4nccnc4c2)CCC3)cc1F [Compound 89, 6-(2-(3,4-Difluorophenyl)-5,6-dihydro-4H-pyrrolo[1,2-b]pyrazol-3-yl)quinoxaline]
9 | 130 | 232 | Fc1cc(F)c(-c2nn3c(c2-c2ccc4ncsc4c2)CCC3)cc1Cl [Compound 189, 6-(2-(5-Chloro-2,4-difluorophenyl)-5,6-dihydro-4H-pyrrolo[1,2-b]pyrazol-3-yl)benzo[d]thiazole]
10 | 1080 | 12600 | Fc1ccc(-c2nn3c(c2-c2ccc4ncccc4c2)CCC3)cc1 [Compound 45, 6-(2-(4-Fluorophenyl)-5,6-dihydro-4H-pyrrolo[1,2-b]pyrazol-3-yl)quinoline]
11 | 678 | 1780 | Cc1c(F)ccc(-c2nn3c(c2-c2ccc4nccnc4c2)CCC3)c1F [Compound 172, 6-(2-(2,4-Difluoro-3-methylphenyl)-5,6-dihydro-4H-pyrrolo[1,2-b]pyrazol-3-yl)quinoxaline]
12 | 200 | 1040 | Fc1ccc(-c2nn3c(c2-c2ccc4cn[nH]c4c2)CCC3)cc1 [Compound 6, 6-(2-(4-Fluorophenyl)-5,6-dihydro-4H-pyrrolo[1,2-b]pyrazol-3-yl)-1H-indazole]
13 | 112 | 225 | Cc1cc(-c2nn3c(c2-c2ccc4ncsc4c2)CCC3)c(F)cc1F [Compound 182, 6-(2-(2,4-Difluoro-5-methylphenyl)-5,6-dihydro-4H-pyrrolo[1,2-b]pyrazol-3-yl)benzo[d]thiazole]
14 | 1240 | 7240 | COc1cccc(-c2nn3c(c2-c2ccc4ncccc4c2)OCC3)c1 [Compound 75, 6-(3-Methoxyphenyl)-7-(quinolin-6-yl)-2,3-dihydropyrazolo[5,1-b]oxazole]
15 | 274 | 952 | COCCOc1cnc2ccc(-c3c(-c4cc(F)ccc4F)nn4c3CCC4)cc2n1 [Compound 200, 7-(2-(2,5-difluorophenyl)-5,6-dihydro-4H-pyrrolo[1,2-b]pyrazol-3-yl)-2-(2-methoxyethoxy)quinoxaline]
16 | 604 | 1050 | Cc1cc(-c2nn3c(c2-c2ccnc4[nH]ccc24)CCC3)ccc1F [Compound 4, 4-(2-(4-Fluoro-3-methylphenyl)-5,6-dihydro-4H-pyrrolo[1,2-b]pyrazol-3-yl)-1H-pyrrolo[2,3-b]pyridine]
17 | 160 | 124 | FC(F)(F)Oc1cccc(-c2nn3c(c2-c2ccc4ncsc4c2)CCC3)c1 [Compound 125, 6-(2-(3-Trifluoromethoxyphenyl)-5,6-dihydro-4H-pyrrolo[1,2-b]pyrazol-3-yl)benzo[d]thiazole]
18 | 26.2 | 116 | Fc1ccc(-c2nn3c(c2-c2ccc4ncsc4c2)CCC3)c(F)c1 [Compound 97, 6-(2-(2,4-Difluorophenyl)-5,6-dihydro-4H-pyrrolo[1,2-b]pyrazol-3-yl)benzo[d]thiazole]
19 | 156 | 222 | FC(F)(F)Oc1cccc(-c2nn3c(c2-c2ccc4nccnc4c2)CCC3)c1 [Compound 126, 6-(2-(3-Trifluoromethoxyphenyl)-5,6-dihydro-4H-pyrrolo[1,2-b]pyrazol-3-yl)quinoxaline]
20 | 346 | 1640 | Fc1ccc(-c2nn3c(c2-c2ccc4cn[nH]c4c2)CCC3)c(F)c1F [Compound 129, 6-(2-(2,3,4-Trifluorophenyl)-5,6-dihydro-4H-pyrrolo[1,2-b]pyrazol-3-yl)-1H-indazole]
21 | 217 | 701 | FC(F)(F)c1cccc(-c2nn3c(c2-c2ccc4[nH]ncc4c2)OCC3)c1 [Compound 59, 7-(1H-Indazol-5-yl)-6-(3-trifluoromethylphenyl)-2,3-dihydropyrazolo[5,1-b]oxazole]
22 | 570 | 1310 | COc1ccc(F)c(-c2nn3c(c2-c2ccc4nccn4c2)CCC3)c1 [Compound 164, 6-(2-(2-Fluoro-5-methoxyphenyl)-5,6-dihydro-4H-pyrrolo[1,2-b]pyrazol-3-yl)imidazo[1,2-a]pyridine]
23 | 34 | 112 | Cc1cc(-c2nn3c(c2-c2ccc4ncnn4c2)CCC3)ccc1F [Compound 105, 6-(2-(4-Fluoro-3-methylphenyl)-5,6-dihydro-4H-pyrrolo[1,2-b]pyrazol-3-yl)-[1,2,4]triazolo[1,5-a]pyridine]
24 | 243 | 1040 | COc1cccc(-c2nn3c(c2-c2ccc4ncsc4c2)OCC3)c1 [Compound 74, 7-(Benzo[d]thiazol-6-yl)-6-(3-methoxyphenyl)-2,3-dihydropyrazolo[5,1-b]oxazole]
25 | 8.3 | 34.8 | FC(F)(F)c1cccc(-c2nn3c(c2-c2ccc4nccn4c2)CCC3)c1 [Compound 34, 6-(2-(3-Trifluoromethylphenyl)-5,6-dihydro-4H-pyrrolo[1,2-b]pyrazol-3-yl)imidazo[1,2-a]pyridine]
26 | 104 | 526 | Cc1cccc(-c2nn3c(c2-c2ccc4[nH]ncc4c2)OCC3)c1 [Compound 36, 7-(1H-Indazol-5-yl)-6-(m-tolyl)-2,3-dihydropyrazolo[5,1-b]oxazole]
27 | 78.7 | 376 | Fc1ccc(F)c(-c2nn3c(c2-c2ccc4ncsc4c2)CCC3)c1 [Compound 195, 6-(2-(2,5-Difluorophenyl)-5,6-dihydro-4H-pyrrolo[1,2-b]pyrazol-3-yl)benzo[d]thiazole]
